{
  "source": "patent US20240261274A1",
  "about": "“TREATMENT OF MYC-DRIVEN CANCERS WITH GSPT1 DEGRADERS” (MONTE ROSA THERAPEUTICS, INC., priority 2021, published 2024)",
  "key": {"[1]": {"tested_on": "WSU-DLCL2 triple hit lymphoma cell line derived xenograft", "assay": "WSU-DLCL2 triple hit lymphoma CDX efficacy study", "format": "in vivo, immunodeficient mice", "conditions": "oral daily 3 mg/kg and 10 mg/kg", "description": "Additionally, cell line derived xenograft (CDX) models were produced for the triple hit lymphoma cell line (WSU-DLCL2) in immunodeficient mice. Oral dosing of Compound 345 was performed daily at doses of 3 mg/kg and 10 mg/kg as well as the CHOP combination (a well-known lymphoma treatment regimen) and a no-drug vehicle control. Tumor volumes were measured (mm^3) at regular intervals over the course of up to 30 days depending on the animal.\nIn vivo efficacy study: NCI-H1155, MM1 S, WSU-DLCL2, DOHH-2 cells were maintained in vitro in individual medium and conditions as recommended by the providers and incubated at 37° C. in an atmosphere of 5% CO2 in air. 0.5 million (NCI-H1155), 10 million (MM1S) or 5 million (WSU-DLCL2 and DOHH-2) cells were resuspended in typically 0.1-0.2 mL of PBS with Matrigel (50:50) and were inoculated into 6-8 weeks old BALB/c nude female (NCI-H115, WSU-DLCL2), NOD/SCID (MM1S) or CB-17SCID (DOHH-2) mice and allowed to grow to 150-200 mm3 in size. […] Tumor volumes were measured at least twice weekly during the treatment period using a caliper and the volume was expressed in mm3 using the formula: V=0.5 a×b2 where a and b were the long and short diameters of the tumor, respectively. […] Data are expressed as the mean±SEM. All data was analyzed using GraphPad Prism 8.1.2 (GraphPad)."}, "N-Myc": {"tested_on": "N-Myc", "assay": "N-Myc levels in NCI-H1155 tumors (Compound 345)", "format": "in vivo, mice", "conditions": "day 5, 1 mg/kg and 10 mg/kg, strongest effect at 10 mg/kg", "description": "Additionally, plasma concentrations of Compound 345 and levels of GSPT1 and […] (relative to vehicle-only control) were measured in a time-course experiment on day 5 for the animals receiving 1 mg/kg and 10 mg/kg.\nGSPT1 and N-Myc western blotting analyses from NCI-H1155 tumors: The NCI-H1155 model was run as described previously and tumors were harvested following 5 consecutive daily PO doses of Compound 345 at 1.0 and 10 mg/kg. Tumors were lysed in 1× lysis buffer (CST, Cat. No. 9803, Lot No. 0000122383) supplemented with protease (Sigma, Cat. No. P8340) and phosphatase ((Sigma, Cat. No. P5726 and P0044) cocktail inhibitors using TissueLyser II (QIAGEN #85300). Samples were spined at 15,000 rpm in an Eppendorf microfuge for 15 min at 4° C. The protein supernatant was collected in a new 1.5 ml tube and the protein concentrations were determined by the Pierce BCA kit (Thermo, Cat. No. 23225). The tumor lysate samples were mixed with 5×SDS-PAGE loading buffer boiled for 5 min and brought to ice for 5 min. 30 μg of protein was loaded onto a NUPAGE 4-12% BT gel (Invitrogen, Cat. No. NPO336BOX) for separation. […] Membranes were imaged on the Odyssey imager (Li-COR) using fluorescence or cheminulinescence detection. […] Data are expressed as mean±SEM derived from at least three different mice and collected at 0, 2, 6, 12, 24, 48, 72 and 96 hr as indicated."}},
  "data": [
    {"smiles": "O=C1CCC(N2Cc3ccc(COC(=O)Nc4cc(OC(F)(F)F)ccc4F)cc3C2=O)C(=O)N1", "note": "(centres unmarked) [Compound 345, (2-(2,6-dioxopiperidin-3-yl)-3-oxoisoindolin-5-yl)methyl(2-fluoro-5-(trifluoromethoxy)phenyl)carbamate]", "values": [
      {"measurement": "tumor volume", "setting": "[1]", "result": "anti-tumor activity"},
      {"measurement": "N-Myc level relative to vehicle-only control", "setting": "N-Myc", "result": "substantially reduced"}
    ]}
  ]
}
